This passage reports IC50 results from patent publication US20120059162A1, “FUSED IMIDAZOLE DERIVATIVE HAVING TTK INHIBITORY ACTION” (Oncotherapy Science, Inc., priority 2009, published 2012).

By IC50 is commonly meant the concentration that gives 50% inhibition.

In one experiment the test system is A549. The experiment is described as follows: A549 assay: screening of cancer cell growth inhibiting compound. The format is cell-based. The note with it: Homo sapiens; A549 cells; values given as IC50 intervals; read-out: A549 IC50. The method in brief: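 A549 cells (1×10^4/ml) in D-MEM with 10% FBS were pre-incubated one day at 37 °C, then exposed to compound dilutions for three further days. Viable cell number read by WST-8 (1–4 hours), absorbance 450 nm (reference 620 nm); inhibition calculated relative to untreated wells.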

Another experiment concerns the target T1, TTK (Homo sapiens, UniProt P33981).
T1 sequence (P33981 1-857): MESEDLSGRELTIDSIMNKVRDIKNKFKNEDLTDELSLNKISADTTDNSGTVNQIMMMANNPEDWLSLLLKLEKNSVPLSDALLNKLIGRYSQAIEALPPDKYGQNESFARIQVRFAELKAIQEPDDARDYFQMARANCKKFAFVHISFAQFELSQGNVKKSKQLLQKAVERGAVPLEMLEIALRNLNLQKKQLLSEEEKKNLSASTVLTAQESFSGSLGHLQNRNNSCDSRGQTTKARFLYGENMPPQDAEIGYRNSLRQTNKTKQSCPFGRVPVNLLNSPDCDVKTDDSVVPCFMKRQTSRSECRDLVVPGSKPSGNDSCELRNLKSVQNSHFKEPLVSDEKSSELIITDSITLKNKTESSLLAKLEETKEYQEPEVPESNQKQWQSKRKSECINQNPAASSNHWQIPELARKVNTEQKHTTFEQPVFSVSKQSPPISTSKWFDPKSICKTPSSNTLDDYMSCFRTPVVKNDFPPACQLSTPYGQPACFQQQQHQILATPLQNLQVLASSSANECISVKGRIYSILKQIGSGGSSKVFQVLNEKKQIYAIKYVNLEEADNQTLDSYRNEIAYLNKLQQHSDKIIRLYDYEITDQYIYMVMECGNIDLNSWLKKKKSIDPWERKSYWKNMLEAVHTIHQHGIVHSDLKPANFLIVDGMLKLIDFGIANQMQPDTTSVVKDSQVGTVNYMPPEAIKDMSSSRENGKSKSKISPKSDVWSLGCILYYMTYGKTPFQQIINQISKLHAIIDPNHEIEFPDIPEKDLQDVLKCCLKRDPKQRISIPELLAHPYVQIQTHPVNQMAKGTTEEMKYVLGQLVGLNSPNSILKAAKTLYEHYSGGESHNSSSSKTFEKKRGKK
Nature of the experiment: TTK assay: screening of TTK kinase activity suppressing action using p38 MAPK peptide. The class given is biochemical. The note with it: read-out: TTK IC50. The method in brief: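 TTK (4 μg/ml in enzyme solution) mixed with p38 MAPK peptide and ATP (each 60 μM in substrate solution) in Tris-HCl pH 7.5 with MgCl2, DTT, Na3VO4, β-glycerophosphate, BSA. Reaction aliquot captured on NeutrAvidin plate, detected with Eu-labelled anti-mouse IgG by time-resolved fluorescence; inhibition relative to no-compound signal.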

Consider `O=C(NC1CC1)c1ccc(-c2cnc3c(NCC4CCOCC4)c(Cl)c(OC4CCCC4)nn23)cc1` [Example 2-216], for which the IC50 in the experiment with A549 was 50 to 500 nM; at TTK, 2.7 nM.
For `O=C(NC1CC1)c1ccc(-c2cnc3c(NCC4CCOCC4)c(F)c(OC4CCCC4)nn23)cc1` [Example 2-217] the same measures were 1000 to 10000 nM and 13.9 nM.
For `O=C(NC1CC1)c1ccc(-c2cnc3c(NCC4CCOCC4)c(Cl)c(NC4CCCC4)nn23)cc1` [Example 2-218] the same measures were 500 to 1000 nM and 12.6 nM.
For `CC(C)(Nc1cc(NCC2CCOCC2)c2ncc(-c3ccc(C(=O)NC4CC4)c(F)c3)n2n1)C(F)(F)F` [Example 2-219] the same measures were at most 50 nM and 4.3 nM.
Consider `CC(C)(Nc1cc(NCC2CCOCC2)c2ncc(-c3ccc(C(=O)NC4CC4)c(Cl)c3)n2n1)C(F)(F)F` [Example 2-220], for which the IC50 with A549 was at most 50 nM; at TTK, 3.9 nM.
On to `Nc1cc(C(=O)NC2CC2)ccc1-c1cnc2c(NCC3CCOCC3)cc(NC3CCCC3)nn12` [Example 2-225], for which the results for the IC50 with A549 and at TTK were 50 to 500 nM and 9.7 nM, respectively.
For the compound `Cc1cc(C(=O)NC2CC2)ccc1-c1cnc2c(NCC3CCOCC3)cc(NC3CCCC3)nn12` [Example 2-226], the half-inhibitory concentration (IC50) in the experiment on A549 is 50 to 500 nM; at TTK it was 6.9 nM.
The corresponding values for `O=C(NC1CC1)c1ccc(-c2cnc3c(NCC4CCOCC4)cc(NC4CCCC4)nn23)c(F)c1` [Example 2-227] are 50 to 500 nM and 3.5 nM.
Consider `O=C(NC1CC1)c1ccc(-c2cnc3c(NCC4CCOCC4)cc(NC4CCCC4)nn23)cc1F` [Example 2-228], for which the IC50 with A549 was 50 to 500 nM; on TTK, 3.6 nM.
Turning to `O=C(NC1CC1)c1ccc(-c2cnc3c(NCC4CCOCC4)cc(NC4CCCC4)nn23)cc1O` [Example 2-229], the IC50 in the experiment on A549 is 50 to 500 nM; on TTK, 4.4 nM.
The corresponding values for `O=C(NC1CC1)c1ccc(-c2cnc3c(NCC4CCOCC4)cc(NC4CCCC4)nn23)cc1Cl` [Example 2-230] are at most 50 nM and 4.3 nM.
For `O=C(NC1CC1)c1ccc(-c2cnc3c(NCC4CCOCC4)cc(NC4CCCC4)nn23)c(Cl)c1` [Example 2-231] the same measures were 50 to 500 nM and 5.7 nM.
On to `Cc1cc(-c2cnc3c(NCC4CCOCC4)cc(NC4CCCC4)nn23)ccc1C(=O)NC1CC1` [Example 2-232], for which the results for the IC50 in the experiment with A549 and on TTK were 50 to 500 nM and 2.8 nM, respectively.
Turning to `COc1cc(-c2cnc3c(NCC4CCOCC4)cc(NC4CCCC4)nn23)ccc1C(=O)NC1CC1` [Example 2-233], the IC50 is 500 to 1000 nM in the experiment with A549 and 5.7 nM at TTK.
For `O=C(NC1CC1)c1ccc(-c2nnc3c(NCC4CCOCC4)cc(NC4CCCC4)nn23)cc1` [Example 3-3, 4-(6-(Cyclopentylamino)-8-((tetrahydro-2H-pyran-4-yl)methylamino)-[1,2,4]triazolo[4,3-b]pyridazin-3-yl)-N-cyclopropylbenzamide] the same measures were 1000 to 10000 nM and 145 nM.
